In PubChem BioAssay (NCI):
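The compound was tested at five concentrations on cells cultured in 96-well plates, with a 48-hour exposure period. Here, GI50 denotes the concentration required for 50% inhibition of growth. TGI denotes the concentration required for complete inhibition of growth.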

Experiments:
Assay in all cases: NCI-60 cell line screen, 48 h
NCI/ADR-RES ovarian = tested on: NCI/ADR-RES ovarian
TK-10 renal = tested on: TK-10 renal
UACC-62 melanoma = tested on: UACC-62 melanoma
A549 NSCLC = tested on: A549 NSCLC
RXF 393 renal = tested on: RXF 393 renal
MDA-MB-231 breast = tested on: MDA-MB-231 breast
HOP-62 NSCLC = tested on: HOP-62 NSCLC
CCRF-CEM leukemia = tested on: CCRF-CEM leukemia
CAKI-1 renal = tested on: CAKI-1 renal
SF-539 CNS = tested on: SF-539 CNS
NCI-H460 lung = tested on: NCI-H460 lung
SF-295 CNS = tested on: SF-295 CNS
MOLT-4 leukemia = tested on: MOLT-4 leukemia
LOX IMVI melanoma = tested on: LOX IMVI melanoma
K-562 leukemia = tested on: K-562 leukemia
HCT-116 colon = tested on: HCT-116 colon
HL-60(TB) leukemia = tested on: HL-60(TB) leukemia
SW-620 colon = tested on: SW-620 colon
786-0 renal = tested on: 786-0 renal
HCC-2998 colon = tested on: HCC-2998 colon
OVCAR-3 ovarian = tested on: OVCAR-3 ovarian
HT29 colon = tested on: HT29 colon
SK-MEL-2 melanoma = tested on: SK-MEL-2 melanoma
MDA-MB-435 = tested on: MDA-MB-435
DU-145 prostate = tested on: DU-145 prostate
SF-268 CNS = tested on: SF-268 CNS
M14 melanoma = tested on: M14 melanoma
SR leukemia = tested on: SR leukemia
SK-MEL-28 melanoma = tested on: SK-MEL-28 melanoma
NCI-H23 lung = tested on: NCI-H23 lung
HOP-92 NSCLC = tested on: HOP-92 NSCLC
U251 CNS = tested on: U251 CNS
OVCAR-4 ovarian = tested on: OVCAR-4 ovarian
NCI-H226 lung = tested on: NCI-H226 lung
MALME-3M melanoma = tested on: MALME-3M melanoma
HS 578T breast = tested on: HS 578T breast
T-47D breast = tested on: T-47D breast
OVCAR-5 ovarian = tested on: OVCAR-5 ovarian
UO-31 renal = tested on: UO-31 renal
IGROV1 ovarian = tested on: IGROV1 ovarian
MCF7 breast = tested on: MCF7 breast
SK-OV-3 ovarian = tested on: SK-OV-3 ovarian
SNB-75 CNS = tested on: SNB-75 CNS
SNB-19 CNS = tested on: SNB-19 CNS
PC-3 prostate = tested on: PC-3 prostate
HCT-15 colon = tested on: HCT-15 colon
NCI-H522 lung = tested on: NCI-H522 lung
RPMI-8226 leukemia = tested on: RPMI-8226 leukemia
UACC-257 melanoma = tested on: UACC-257 melanoma
COLO 205 colon = tested on: COLO 205 colon
EKVX NSCLC = tested on: EKVX NSCLC
SK-MEL-5 melanoma = tested on: SK-MEL-5 melanoma
ACHN renal = tested on: ACHN renal
OVCAR-8 ovarian = tested on: OVCAR-8 ovarian
BT-549 breast = tested on: BT-549 breast
SN12C renal = tested on: SN12C renal
KM12 colon = tested on: KM12 colon

C=C1C(=O)O[C@H]2[C@H]1CC/C(COC(=O)CSCC(=O)OC/C1=C/CC[C@@]3(C)O[C@H]3[C@H]3OC(=O)C(=C)[C@@H]3CC1)=C\CC[C@@]1(C)O[C@@H]21
GI50 (NCI/ADR-RES ovarian): 12000 nM
TGI (NCI/ADR-RES ovarian): 40200 nM
GI50 (TK-10 renal): 1690 nM
TGI (TK-10 renal): 3270 nM
GI50 (UACC-62 melanoma): 1690 nM
TGI (UACC-62 melanoma): 3950 nM
GI50 (A549 NSCLC): 5000 nM
TGI (A549 NSCLC): 18200 nM
GI50 (RXF 393 renal): 416 nM
TGI (RXF 393 renal): 1520 nM
GI50 (MDA-MB-231 breast): 1630 nM
TGI (MDA-MB-231 breast): 3340 nM
GI50 (HOP-62 NSCLC): 5250 nM
TGI (HOP-62 NSCLC): 20200 nM
GI50 (CCRF-CEM leukemia): 268 nM
TGI (CCRF-CEM leukemia): 1250 nM
GI50 (CAKI-1 renal): 1570 nM
TGI (CAKI-1 renal): 3000 nM
GI50 (SF-539 CNS): 2040 nM
TGI (SF-539 CNS): 5080 nM
GI50 (NCI-H460 lung): 2160 nM
TGI (NCI-H460 lung): 4910 nM
GI50 (SF-295 CNS): 10200 nM
TGI (SF-295 CNS): 26200 nM
GI50 (MOLT-4 leukemia): 514 nM
TGI (MOLT-4 leukemia): 2810 nM
GI50 (LOX IMVI melanoma): 1580 nM
TGI (LOX IMVI melanoma): 3100 nM
GI50 (K-562 leukemia): 636 nM
TGI (K-562 leukemia): 4060 nM
GI50 (HCT-116 colon): 466 nM
TGI (HCT-116 colon): 1590 nM
GI50 (HL-60(TB) leukemia): 432 nM
TGI (HL-60(TB) leukemia): 2070 nM
GI50 (SW-620 colon): 1020 nM
TGI (SW-620 colon): 2440 nM
GI50 (786-0 renal): 1500 nM
TGI (786-0 renal): 3220 nM
GI50 (HCC-2998 colon): 2120 nM
TGI (HCC-2998 colon): 4560 nM
GI50 (OVCAR-3 ovarian): 832 nM
TGI (OVCAR-3 ovarian): 2120 nM
GI50 (HT29 colon): 1220 nM
TGI (HT29 colon): 2560 nM
GI50 (SK-MEL-2 melanoma): 2120 nM
TGI (SK-MEL-2 melanoma): 5620 nM
GI50 (MDA-MB-435): 1690 nM
TGI (MDA-MB-435): 3920 nM
GI50 (DU-145 prostate): 1500 nM
TGI (DU-145 prostate): 3050 nM
GI50 (SF-268 CNS): 3280 nM
TGI (SF-268 CNS): 13900 nM
GI50 (M14 melanoma): 1630 nM
TGI (M14 melanoma): 3870 nM
GI50 (SR leukemia): 282 nM
TGI (SR leukemia): 2150 nM
GI50 (SK-MEL-28 melanoma): 1550 nM
TGI (SK-MEL-28 melanoma): 3610 nM
GI50 (NCI-H23 lung): 2260 nM
TGI (NCI-H23 lung): 7070 nM
GI50 (HOP-92 NSCLC): 1430 nM
TGI (HOP-92 NSCLC): 3600 nM
GI50 (U251 CNS): 3190 nM
TGI (U251 CNS): 11300 nM
GI50 (OVCAR-4 ovarian): 1790 nM
TGI (OVCAR-4 ovarian): 4600 nM
GI50 (NCI-H226 lung): 2280 nM
TGI (NCI-H226 lung): 6590 nM
GI50 (MALME-3M melanoma): 1240 nM
TGI (MALME-3M melanoma): 2800 nM
GI50 (HS 578T breast): 3520 nM
TGI (HS 578T breast): 19300 nM
GI50 (T-47D breast): 2160 nM
TGI (T-47D breast): 5720 nM
GI50 (OVCAR-5 ovarian): 1850 nM
TGI (OVCAR-5 ovarian): 3860 nM
GI50 (UO-31 renal): 1440 nM
TGI (UO-31 renal): 2830 nM
GI50 (IGROV1 ovarian): 1470 nM
TGI (IGROV1 ovarian): 4020 nM
GI50 (MCF7 breast): 480 nM
TGI (MCF7 breast): 2330 nM
GI50 (SK-OV-3 ovarian): 15600 nM
TGI (SK-OV-3 ovarian): 29100 nM
GI50 (SNB-75 CNS): 3130 nM
TGI (SNB-75 CNS): 10500 nM
GI50 (SNB-19 CNS): 3110 nM
TGI (SNB-19 CNS): 13900 nM
GI50 (PC-3 prostate): 2210 nM
TGI (PC-3 prostate): 6920 nM
GI50 (HCT-15 colon): 1250 nM
TGI (HCT-15 colon): 2690 nM
GI50 (NCI-H522 lung): 1080 nM
TGI (NCI-H522 lung): 2490 nM
GI50 (RPMI-8226 leukemia): 1450 nM
TGI (RPMI-8226 leukemia): 4010 nM
GI50 (UACC-257 melanoma): 1760 nM
TGI (UACC-257 melanoma): 4300 nM
GI50 (COLO 205 colon): 887 nM
TGI (COLO 205 colon): 2440 nM
GI50 (EKVX NSCLC): 1820 nM
TGI (EKVX NSCLC): 4120 nM
GI50 (SK-MEL-5 melanoma): 1730 nM
TGI (SK-MEL-5 melanoma): 3770 nM
GI50 (ACHN renal): 1230 nM
TGI (ACHN renal): 2480 nM
GI50 (OVCAR-8 ovarian): 1480 nM
TGI (OVCAR-8 ovarian): 4210 nM
GI50 (BT-549 breast): 1420 nM
TGI (BT-549 breast): 2900 nM
GI50 (SN12C renal): 1600 nM
TGI (SN12C renal): 3540 nM
GI50 (KM12 colon): 2590 nM
TGI (KM12 colon): 8750 nM
